What was measured:
[1] = tested on: basal cell carcinoma (BCC), squamous cell carcinoma (SCC) and melanoma tumors; test: In vivo fluorescence imaging of skin tumors after systemic (retro-orbital) injection of the probe; set-up: species or system mouse
From the text: Imaging agents based on the well-characterized COX-2 inhibitors can be used for the early detection of skin cancer and help define tumor margins. […] A continuing problem is the detection of small tumors that are indistinguishable over non-specific background fluorescence.
FIGS. 1A and 1B illustrate in vivo detection of Fluorocoxib accumulation in Basal Cell Carcinoma Imaging with CRi Maestro. FIG. 1A: Histology and identification of tumor cell; FIG. 1B: from lesion 3 (arrows).
However, for skin or other epithelial applications, as well as to improve on its TBR on systemic administration, it is desirable to limit the non-specific signal. To overcome this undesirable background fluorescent signal that can mask signals from smaller tumors and other sites having low-level expression of COX-2, the present disclosure provides molecular probes wherein the fluorescent COX-2-specific construct comprises a fluorescent quencher linked to the probe by a cleavable linker. Upon entry into a cell and binding of the Fluorocoxib to COX-2, the quencher can be displaced from the vicinity of the fluorophore by, for example, a cytoplasmic peptidase cleavage of the cleavable linker, allowing the generation of a detectable fluorescent signal. […]
The capability of this probe to detect early stage skin tumors that cannot be detected by visual inspection was investigated. […]

[2] = LC/MS-MS quantification in mouse blood after topical application; assay type: in vivo

## 5-Rox-D-indomethacin [Fluorocoxib A]
[1]; genetically engineered mouse model of non-melanoma skin cancer, systemic administration, 1 mg/kg
  size of small tumors visualized: approximately 100 μm
[1]; three hours after retro-orbital injection, in vivo imaging and tissue histology
  fluorescence detection in tumor areas: selectively detected
[2]
  level in mouse blood: undetectable
